Values after ≈ are worked out from the molar mass of the structure shown. Active and inactive are the calls of the source. No cut-off for these calls is given here.
Tests used:
[1] = target: T1, Prostaglandin G/H synthase 2 (Mus musculus) (UniProt Q05769); test: (§1) Inhibition of COX2 in mouse lung fibroblast assessed as PGE2 production by radioimmunoassay
T1 sequence (whole entry): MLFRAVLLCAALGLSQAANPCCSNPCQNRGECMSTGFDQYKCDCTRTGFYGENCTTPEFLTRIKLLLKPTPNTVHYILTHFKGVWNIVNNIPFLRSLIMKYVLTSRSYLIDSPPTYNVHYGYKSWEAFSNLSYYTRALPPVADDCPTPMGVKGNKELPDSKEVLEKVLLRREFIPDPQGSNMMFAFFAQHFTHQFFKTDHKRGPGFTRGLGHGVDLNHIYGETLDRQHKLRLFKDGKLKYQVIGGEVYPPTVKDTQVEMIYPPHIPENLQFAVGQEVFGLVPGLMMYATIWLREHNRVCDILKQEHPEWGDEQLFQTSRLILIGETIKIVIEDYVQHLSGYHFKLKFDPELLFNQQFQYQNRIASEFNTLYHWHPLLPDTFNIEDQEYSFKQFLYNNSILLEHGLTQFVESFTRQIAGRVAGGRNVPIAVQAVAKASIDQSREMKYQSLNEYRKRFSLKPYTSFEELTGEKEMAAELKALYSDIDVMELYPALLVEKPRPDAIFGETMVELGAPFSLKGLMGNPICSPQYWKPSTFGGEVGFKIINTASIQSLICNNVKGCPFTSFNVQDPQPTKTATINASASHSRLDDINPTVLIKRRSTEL

KB = test: Cytotoxicity against human KB cells; format: functional, cell-based
BC = test: (§2) Cytotoxicity against human BC cells; format: functional, cell-based
NCI-H187 = test: Cytotoxicity against human NCI-H187 cells; format: functional, cell-based
[2] = target: T2, Prostaglandin G/H synthase 2 (Mus musculus, UniProt Q05769); test: as §1
T2 sequence (Q05769 whole entry): T1 sequence (whole entry)

[3] = system: Radical scavenging activity; test: Antioxidant activity assessed as DPPH radical scavenging activity by DPPH stable radical assay
[4] = as §2; format: functional, cell-based
Vero = test: Cytotoxicity against african green monkey Vero cells; format: cell-based; settings: Chlorocebus sabaeus

Compound	Activity [1]	Activity (KB)	Activity (BC)	Activity (NCI-H187)	IC50 [2] [µM]	IC50 [3] [µM]	IC50 [4] [µg/mL]	IC50 (Vero) [µg/mL]	IC50 (KB) [µg/mL]	IC50 (NCI-H187) [µg/mL]
COc1cc(O)c2c(c1)O[C@H](c1ccc(OC)c(OC)c1C/C=C(\C)CCC=C(C)C)CC2=O	inactive	inactive	inactive	inactive	–	–	–	–	–	–
CC1=CC(=O)CC(C)(C)[C@@]1(O)CC[C@@H](C)O	inactive	inactive	inactive	inactive	–	–	–	–	–	–
COc1ccc([C@@H]2CC(=O)c3c(cc(OC)c(C/C=C(\C)CCC=C(C)C)c3O)O2)cc1OC	inactive	inactive	inactive	inactive	–	–	–	–	–	–
COc1cc(O)c2c(c1)O[C@H](c1ccc(OC)c(O)c1C/C=C(\C)CCC=C(C)C)CC2=O	inactive	inactive	inactive	inactive	–	–	–	–	–	–
CC(C)=CCC/C(C)=C/Cc1c([C@@H]2CC(=O)c3c(O)cc(O)cc3O2)ccc(O)c1O [NYMPHAEOL B]	–	inactive	inactive	inactive	8.72	13	–	–	–	–
C=C(C)C(O)CC/C(C)=C/Cc1c(O)cc2c(c1O)C(=O)C[C@@H](c1ccc(O)c(O)c1)O2 (some centres undefined) [TANARIFLAVANONE D]	–	–	–	inactive	–	20	6.5 (≈ 14.8 µM)	19.5 (≈ 44.3 µM)	–	–
CC1=CC(=O)CC(C)(C)[C@@]1(O)/C=C/[C@@H](C)O	inactive	inactive	inactive	inactive	–	–	–	–	–	–
CC(C)=CCC/C(C)=C/Cc1c(O)cc2c(c1O)C(=O)C[C@@H](c1ccc(O)c(O)c1)O2 [NYMPHAEOL A]	–	–	–	–	–	14	2.7 (≈ 6.36 µM)	3.8 (≈ 8.95 µM)	4.6 (≈ 10.8 µM)	1.5 (≈ 3.53 µM)
Cc1cc(C(C)(C)C)c(O)c(C(C)(C)C)c1 [BUTYLATED HYDROXYTOLUENE]	–	–	–	–	–	30	–	–	–	–
COc1cc2c(c(O)c1CC=C(C)C)C(=O)C[C@@H](c1ccc(OC)c(OC)c1C/C=C(\C)CCC=C(C)C)O2	inactive	inactive	inactive	inactive	–	599	–	–	–	–
C=C(C)C(O)Cc1c(O)cc2c(c1O)C(=O)C[C@@H](c1ccc(O)c(O)c1C/C=C(\C)CCC=C(C)C)O2 (some centres undefined) [TANARIFLAVANONE C]	inactive	inactive	inactive	inactive	–	33	–	–	–	–
CC(C)=CCCC1(C)C=Cc2c([C@@H]3CC(=O)c4c(cc(O)c(CC=C(C)C)c4O)O3)ccc(O)c2O1 (some centres undefined)	inactive	inactive	inactive	inactive	–	–	–	–	–	–
COc1ccc([C@@H]2CC(=O)c3c(cc(OC)c(CC=C(C)C)c3O)O2)c(C/C=C(\C)CCC=C(C)C)c1O	inactive	inactive	inactive	inactive	–	413	–	–	–	–
CC(C)=CCC/C(C)=C/Cc1c([C@@H]2CC(=O)c3c(cc(O)c(CC=C(C)C)c3O)O2)ccc(O)c1O [NYMPHAEOL C]	inactive	inactive	inactive	inactive	–	15	–	–	–	–
